Source: patent US9340590B2 (priority 2011, dated 2016)
Where two headings read alike, the source gives them in different places. Positions of bridges follow the written chain, without caps; N, C: chain ends. Non-standard residues stand in square brackets, D forms with d. Residues, ends and D or L forms follow the SMILES beside them. 1Nal = N[C@@H](Cc1cccc2ccccc12)C(=O)O

What was measured:
Experiment in all cases: cell-based
hNav1.5 = hNav1.5 (Homo sapiens, UniProt Q14524); settings: IonWorks Quattro, read-out: IWQ Use Nav1.5
hNav1.5, sequence (Q14524 whole entry, looked up): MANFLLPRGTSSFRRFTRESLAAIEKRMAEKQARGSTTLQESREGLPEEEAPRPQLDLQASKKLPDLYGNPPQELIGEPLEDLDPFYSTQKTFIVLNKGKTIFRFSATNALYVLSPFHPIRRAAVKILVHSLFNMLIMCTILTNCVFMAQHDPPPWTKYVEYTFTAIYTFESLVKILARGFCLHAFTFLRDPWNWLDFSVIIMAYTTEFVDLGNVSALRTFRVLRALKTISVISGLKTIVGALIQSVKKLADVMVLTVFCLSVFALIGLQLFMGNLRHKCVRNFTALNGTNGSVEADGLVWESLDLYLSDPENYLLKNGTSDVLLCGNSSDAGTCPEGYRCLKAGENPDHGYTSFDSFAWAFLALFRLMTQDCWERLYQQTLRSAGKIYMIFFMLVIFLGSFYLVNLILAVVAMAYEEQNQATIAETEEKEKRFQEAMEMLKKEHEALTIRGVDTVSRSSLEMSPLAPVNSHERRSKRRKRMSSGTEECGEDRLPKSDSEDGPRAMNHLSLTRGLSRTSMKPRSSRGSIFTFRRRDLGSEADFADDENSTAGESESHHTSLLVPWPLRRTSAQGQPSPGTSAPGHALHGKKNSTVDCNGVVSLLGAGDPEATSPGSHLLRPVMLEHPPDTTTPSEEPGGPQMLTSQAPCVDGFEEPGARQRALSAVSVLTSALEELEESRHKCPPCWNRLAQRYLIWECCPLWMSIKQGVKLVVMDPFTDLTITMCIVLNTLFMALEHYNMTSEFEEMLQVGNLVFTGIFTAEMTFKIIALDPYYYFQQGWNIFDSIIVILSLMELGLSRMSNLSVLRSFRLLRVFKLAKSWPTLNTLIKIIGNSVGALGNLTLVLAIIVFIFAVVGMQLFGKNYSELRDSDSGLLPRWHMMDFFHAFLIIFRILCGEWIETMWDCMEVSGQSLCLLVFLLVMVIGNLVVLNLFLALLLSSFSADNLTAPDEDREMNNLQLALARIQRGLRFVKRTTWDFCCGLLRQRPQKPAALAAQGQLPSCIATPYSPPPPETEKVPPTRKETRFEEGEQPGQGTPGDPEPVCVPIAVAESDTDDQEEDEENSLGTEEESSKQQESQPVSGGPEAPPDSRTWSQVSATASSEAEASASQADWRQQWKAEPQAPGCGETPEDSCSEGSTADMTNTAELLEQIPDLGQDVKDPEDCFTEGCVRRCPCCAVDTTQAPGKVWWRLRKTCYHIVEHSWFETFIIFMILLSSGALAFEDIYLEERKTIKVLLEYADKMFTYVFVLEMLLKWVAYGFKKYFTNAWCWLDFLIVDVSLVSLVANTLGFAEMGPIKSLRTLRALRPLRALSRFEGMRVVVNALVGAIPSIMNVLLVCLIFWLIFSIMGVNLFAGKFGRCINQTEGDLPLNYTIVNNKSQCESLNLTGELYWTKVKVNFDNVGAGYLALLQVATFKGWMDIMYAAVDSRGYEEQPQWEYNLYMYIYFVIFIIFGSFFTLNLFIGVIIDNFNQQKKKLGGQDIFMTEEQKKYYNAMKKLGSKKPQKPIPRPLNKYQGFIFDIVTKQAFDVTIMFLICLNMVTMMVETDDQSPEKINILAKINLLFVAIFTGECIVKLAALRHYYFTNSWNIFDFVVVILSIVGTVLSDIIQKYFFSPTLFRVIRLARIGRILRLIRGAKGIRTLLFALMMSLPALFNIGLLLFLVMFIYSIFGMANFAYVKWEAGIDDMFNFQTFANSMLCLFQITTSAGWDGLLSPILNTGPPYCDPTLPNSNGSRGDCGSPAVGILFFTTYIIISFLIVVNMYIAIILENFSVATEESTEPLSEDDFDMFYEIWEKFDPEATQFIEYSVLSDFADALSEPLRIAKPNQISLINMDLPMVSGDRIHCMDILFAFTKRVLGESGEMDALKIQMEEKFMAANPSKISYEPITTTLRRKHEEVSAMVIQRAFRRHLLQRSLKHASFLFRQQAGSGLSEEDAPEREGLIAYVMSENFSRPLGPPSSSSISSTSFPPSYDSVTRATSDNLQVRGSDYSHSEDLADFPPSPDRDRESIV

hNav1.3 = hNav1.3 (Homo sapiens, UniProt Q9NY46); settings: IonWorks Quattro, read-out: IWQ Use Nav1.3
hNav1.7 = hNav1.7 (Homo sapiens, UniProt Q15858); format: cell-based
hNav1.7, sequence (Q15858 whole entry, looked up): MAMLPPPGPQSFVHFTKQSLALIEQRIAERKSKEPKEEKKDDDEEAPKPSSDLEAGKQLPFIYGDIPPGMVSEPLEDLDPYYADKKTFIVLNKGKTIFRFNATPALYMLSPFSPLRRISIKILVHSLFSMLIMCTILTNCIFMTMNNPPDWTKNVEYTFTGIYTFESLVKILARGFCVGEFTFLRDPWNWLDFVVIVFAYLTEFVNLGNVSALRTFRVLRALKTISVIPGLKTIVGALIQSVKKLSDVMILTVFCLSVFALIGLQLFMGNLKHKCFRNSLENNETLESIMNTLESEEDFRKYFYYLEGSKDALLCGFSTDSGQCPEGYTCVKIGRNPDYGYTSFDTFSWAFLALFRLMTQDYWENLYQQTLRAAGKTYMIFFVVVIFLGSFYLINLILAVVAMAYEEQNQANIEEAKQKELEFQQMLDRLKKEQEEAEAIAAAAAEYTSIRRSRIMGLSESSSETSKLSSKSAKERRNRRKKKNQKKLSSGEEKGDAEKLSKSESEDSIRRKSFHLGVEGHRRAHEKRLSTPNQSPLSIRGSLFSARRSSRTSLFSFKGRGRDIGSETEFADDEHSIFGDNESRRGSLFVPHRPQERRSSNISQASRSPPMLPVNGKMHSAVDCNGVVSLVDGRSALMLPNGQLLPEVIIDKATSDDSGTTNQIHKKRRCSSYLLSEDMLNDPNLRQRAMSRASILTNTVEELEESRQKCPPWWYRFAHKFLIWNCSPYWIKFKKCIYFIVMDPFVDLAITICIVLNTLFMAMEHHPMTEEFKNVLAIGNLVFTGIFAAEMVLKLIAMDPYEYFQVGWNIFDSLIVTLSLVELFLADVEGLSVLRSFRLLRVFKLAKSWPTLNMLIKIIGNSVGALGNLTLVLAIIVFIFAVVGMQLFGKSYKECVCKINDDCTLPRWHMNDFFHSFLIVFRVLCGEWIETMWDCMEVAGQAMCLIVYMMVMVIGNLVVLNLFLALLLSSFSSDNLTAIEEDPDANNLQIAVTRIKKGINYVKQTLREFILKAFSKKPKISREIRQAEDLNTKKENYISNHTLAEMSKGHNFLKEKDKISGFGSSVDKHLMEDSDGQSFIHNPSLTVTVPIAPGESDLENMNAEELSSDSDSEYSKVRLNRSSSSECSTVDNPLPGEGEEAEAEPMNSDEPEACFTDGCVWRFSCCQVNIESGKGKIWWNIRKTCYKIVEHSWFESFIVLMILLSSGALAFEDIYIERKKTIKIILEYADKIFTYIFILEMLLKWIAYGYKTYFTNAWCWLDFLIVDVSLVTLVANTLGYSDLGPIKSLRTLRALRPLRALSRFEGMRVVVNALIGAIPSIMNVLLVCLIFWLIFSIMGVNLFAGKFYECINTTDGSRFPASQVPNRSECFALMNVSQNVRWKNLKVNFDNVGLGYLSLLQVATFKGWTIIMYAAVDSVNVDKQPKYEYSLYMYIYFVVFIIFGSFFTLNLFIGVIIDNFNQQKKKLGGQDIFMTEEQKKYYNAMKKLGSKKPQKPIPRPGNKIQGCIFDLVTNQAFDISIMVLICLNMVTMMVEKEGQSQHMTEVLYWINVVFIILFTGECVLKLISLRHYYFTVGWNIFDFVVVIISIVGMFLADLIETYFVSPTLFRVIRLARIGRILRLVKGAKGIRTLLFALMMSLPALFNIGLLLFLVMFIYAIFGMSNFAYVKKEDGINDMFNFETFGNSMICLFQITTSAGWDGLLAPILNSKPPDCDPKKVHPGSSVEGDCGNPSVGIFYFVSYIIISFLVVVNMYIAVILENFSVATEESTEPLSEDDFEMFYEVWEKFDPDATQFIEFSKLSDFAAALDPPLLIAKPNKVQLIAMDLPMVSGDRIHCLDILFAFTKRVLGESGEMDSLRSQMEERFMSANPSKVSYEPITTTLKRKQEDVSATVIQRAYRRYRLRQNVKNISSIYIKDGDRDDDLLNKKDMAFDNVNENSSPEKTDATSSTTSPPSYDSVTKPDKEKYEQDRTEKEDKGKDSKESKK

[1] = IonWorks Quattro, Use, read-out: IWQ Use Nav1.7

| SMILES | IC50 (hNav1.5; Use) | IC50 (hNav1.3; Use) | IC50 (hNav1.7; [1]) | IC50 (hNav1.7) | IC50 (hNav1.5; Table 23, use, […]) | IC50 (hNav1.3; Table 23, use, […]) | IC50 (hNav1.7; Table 23, IonWorks Quattro, use, […], read-out: IWQ Use Nav1.7) |
| --- | --- | --- | --- | --- | --- | --- | --- |
| CC[C@H](C)[C@@H]1NC(=O)[C@@H]2CSSC[C@@H]3NC(=O)[C@H](C(C)C)NC(=O)[C@H](CC(C)C)NC(=O)[C@H](CCC(=O)O)NC(=O)[C@@H]4CCCN4C(=O)[C@H](CCCNC(=N)N)NC(=O)[C@H](CSSC[C@H](NC(=O)[C@@H](N)CC(=O)O)C(=O)N[C@@H](CC(C)C)C(=O)NCC(=O)N[C@@H](Cc4ccccc4)C(=O)N[C@@H](CCSC)C(=O)N[C@@H](CCCNC(=N)N)C(=O)N[C@@H](CCCCN)C(=O)N2)NC(=O)[C@H](CSSC[C@@H](C(=O)N[C@@H](CCCCN)C(=O)N[C@@H](Cc2ccc(O)cc2)C(=O)N[C@H](C(=O)N[C@@H](Cc2ccccc2)C(N)=O)C(C)C)NC(=O)[C@H](Cc2c[nH]c4ccccc24)NC(=O)[C@H](CCCCN)NC(=O)[C@H](Cc2cnc[nH]2)NC(=O)[C@H]([C@@H](C)O)NC(=O)[C@H](CCCNC(=N)N)NC(=O)[C@H](CO)NC3=O)NC(=O)[C@H](CCCCN)NC(=O)[C@H](CC(=O)O)NC(=O)[C@H](CC(N)=O)NC(=O)[C@H](CC(=O)O)NC(=O)[C@@H]2CCCN2C1=O [compound 149] (H-DCLGFMRKCIPDNDKCCRPELVCSRTHKWCKYVF-NH2; disulfide 2-17, 9-23, 16-30) | 7.49 µM | 1.02 µM | 1.42 µM | – | – | – | – |
| CC[C@H](C)[C@@H]1NC(=O)[C@@H]2CSSC[C@@H]3NC(=O)[C@H](C(C)C)NC(=O)[C@H](CC(C)C)NC(=O)[C@H](CC(N)=O)NC(=O)[C@@H]4CCCN4C(=O)[C@H](CCCNC(=N)N)NC(=O)[C@H](CSSC[C@H](NC(=O)[C@@H](N)CC(=O)O)C(=O)N[C@@H](CC(C)C)C(=O)NCC(=O)N[C@@H](Cc4ccccc4)C(=O)N[C@@H](CCSC)C(=O)N[C@@H](CCCNC(=N)N)C(=O)N[C@@H](CCCCN)C(=O)N2)NC(=O)[C@H](CSSC[C@@H](C(=O)N[C@@H](CCCCN)C(=O)N[C@@H](Cc2ccc(O)cc2)C(=O)N[C@H](C(=O)N[C@@H](Cc2ccccc2)C(N)=O)C(C)C)NC(=O)[C@H](Cc2c[nH]c4ccccc24)NC(=O)[C@H](CCCCN)NC(=O)[C@H](Cc2cnc[nH]2)NC(=O)[C@H]([C@@H](C)O)NC(=O)[C@H](CCCNC(=N)N)NC(=O)[C@H](CCC(=O)O)NC3=O)NC(=O)[C@H](CCCCN)NC(=O)[C@H](CC(=O)O)NC(=O)[C@H](CC(N)=O)NC(=O)[C@H](CC(=O)O)NC(=O)[C@@H]2CCCN2C1=O [compound 150] (H-DCLGFMRKCIPDNDKCCRPNLVCERTHKWCKYVF-NH2; disulfide 2-17, 9-23, 16-30) | 11.5 µM | 6.78 µM | 6.12 µM | – | – | – | – |
| CC[C@H](C)[C@@H]1NC(=O)[C@@H]2CSSC[C@@H]3NC(=O)[C@H](C(C)C)NC(=O)[C@H](CC(C)C)NC(=O)[C@H](CC(N)=O)NC(=O)[C@@H]4CCCN4C(=O)[C@H](CCCNC(=N)N)NC(=O)[C@H](CSSC[C@H](NC(=O)[C@@H](N)CC(=O)O)C(=O)N[C@@H](CC(C)C)C(=O)NCC(=O)N[C@@H](Cc4ccccc4)C(=O)N[C@@H](CCSC)C(=O)N[C@@H](CCCNC(=N)N)C(=O)N[C@@H](CCCCN)C(=O)N2)NC(=O)[C@H](CSSC[C@@H](C(=O)N[C@@H](CCCCN)C(=O)N[C@@H](Cc2ccc(O)cc2)C(=O)N[C@H](C(=O)N[C@@H](Cc2ccccc2)C(N)=O)C(C)C)NC(=O)[C@H](Cc2c[nH]c4ccccc24)NC(=O)[C@H](CCCCN)NC(=O)[C@H](Cc2c[nH]cn2)NC(=O)[C@H]([C@@H](C)O)NC(=O)[C@H](CCC(=O)O)NC(=O)[C@H](CO)NC3=O)NC(=O)[C@H](CCCCN)NC(=O)[C@H](CC(=O)O)NC(=O)[C@H](CC(N)=O)NC(=O)[C@H](CC(=O)O)NC(=O)[C@@H]2CCCN2C1=O [compound 151] (H-DCLGFMRKCIPDNDKCCRPNLVCSETHKWCKYVF-NH2; disulfide 2-17, 9-23, 16-30) | 14 µM | 1.17 µM | 0.71 µM | – | – | – | – |
| CC[C@H](C)[C@@H]1NC(=O)[C@@H]2CSSC[C@@H]3NC(=O)[C@H](C(C)C)NC(=O)[C@H](CC(C)C)NC(=O)[C@H](CC(N)=O)NC(=O)[C@@H]4CCCN4C(=O)[C@H](CCCNC(=N)N)NC(=O)[C@H](CSSC[C@H](NC(=O)[C@@H](N)CC(=O)O)C(=O)N[C@@H](CC(C)C)C(=O)NCC(=O)N[C@@H](Cc4ccccc4)C(=O)N[C@@H](CCSC)C(=O)N[C@@H](CCCNC(=N)N)C(=O)N[C@@H](CCCCN)C(=O)N2)NC(=O)[C@H](CSSC[C@@H](C(=O)N[C@@H](CCCCN)C(=O)N[C@@H](Cc2ccc(O)cc2)C(=O)N[C@H](C(=O)N[C@@H](Cc2ccccc2)C(N)=O)C(C)C)NC(=O)[C@H](Cc2c[nH]c4ccccc24)NC(=O)[C@H](CCCCN)NC(=O)[C@H](Cc2c[nH]cn2)NC(=O)[C@H]([C@@H](C)O)NC(=O)[C@H](CCCNC(=N)N)NC(=O)[C@H](CO)NC3=O)NC(=O)[C@H](CCCCN)NC(=O)[C@H](CC(=O)O)NC(=O)[C@H](CC(N)=O)NC(=O)[C@H](Cc2cccc3ccccc23)NC(=O)[C@@H]2CCCN2C1=O [compound 162] (H-DCLGFMRKCIP[1Nal]NDKCCRPNLVCSRTHKWCKYVF-NH2; disulfide 2-17, 9-23, 16-30) | 9.88 µM | 0.04 µM | 0.06 µM | – | – | – | – |
| CC[C@H](C)[C@@H]1NC(=O)[C@@H]2CSSC[C@@H]3NC(=O)[C@H](C(C)C)NC(=O)[C@H](CC(C)C)NC(=O)[C@H](CC(N)=O)NC(=O)[C@@H]4CCCN4C(=O)[C@H](CCCNC(=N)N)NC(=O)[C@H](CSSC[C@H](NC(=O)[C@@H](N)CC(=O)O)C(=O)N[C@@H](CC(C)C)C(=O)NCC(=O)N[C@@H](Cc4ccccc4)C(=O)N[C@@H](CCSC)C(=O)N[C@@H](CCCNC(=N)N)C(=O)N[C@@H](CCCCN)C(=O)N2)NC(=O)[C@H](CSSC[C@@H](C(=O)N[C@@H](CCCCN)C(=O)N[C@@H](Cc2ccc(O)cc2)C(=O)N[C@H](C(=O)N[C@@H](Cc2ccccc2)C(N)=O)C(C)C)NC(=O)[C@H](Cc2c[nH]c4ccccc24)NC(=O)[C@H](CCCCN)NC(=O)[C@H](Cc2c[nH]cn2)NC(=O)[C@H]([C@@H](C)O)NC(=O)[C@H](CCCNC(=N)N)NC(=O)[C@H](CO)NC3=O)NC(=O)[C@H](CCCCN)NC(=O)[C@H](CC(=O)O)NC(=O)[C@H](Cc2cccc3ccccc23)NC(=O)[C@H](CC(=O)O)NC(=O)[C@@H]2CCCN2C1=O [compound 163] (H-DCLGFMRKCIPD[1Nal]DKCCRPNLVCSRTHKWCKYVF-NH2; disulfide 2-17, 9-23, 16-30) | 8.27 µM | 0.09 µM | 0.11 µM | – | – | – | – |
| CC[C@H](C)[C@@H]1NC(=O)[C@@H]2CSSC[C@@H]3NC(=O)[C@H](C(C)C)NC(=O)[C@H](Cc4cccc5ccccc45)NC(=O)[C@H](CC(N)=O)NC(=O)[C@@H]4CCCN4C(=O)[C@H](CCCNC(=N)N)NC(=O)[C@H](CSSC[C@H](NC(=O)[C@@H](N)CC(=O)O)C(=O)N[C@@H](CC(C)C)C(=O)NCC(=O)N[C@@H](Cc4ccccc4)C(=O)N[C@@H](CCSC)C(=O)N[C@@H](CCCNC(=N)N)C(=O)N[C@@H](CCCCN)C(=O)N2)NC(=O)[C@H](CSSC[C@@H](C(=O)N[C@@H](CCCCN)C(=O)N[C@@H](Cc2ccc(O)cc2)C(=O)N[C@H](C(=O)N[C@@H](Cc2ccccc2)C(N)=O)C(C)C)NC(=O)[C@H](Cc2c[nH]c4ccccc24)NC(=O)[C@H](CCCCN)NC(=O)[C@H](Cc2c[nH]cn2)NC(=O)[C@H]([C@@H](C)O)NC(=O)[C@H](CCCNC(=N)N)NC(=O)[C@H](CO)NC3=O)NC(=O)[C@H](CCCCN)NC(=O)[C@H](CC(=O)O)NC(=O)[C@H](CC(N)=O)NC(=O)[C@H](CC(=O)O)NC(=O)[C@@H]2CCCN2C1=O [compound 165] (H-DCLGFMRKCIPDNDKCCRPN[1Nal]VCSRTHKWCKYVF-NH2; disulfide 2-17, 9-23, 16-30) | 10.6 µM | 0.09 µM | – | 0.08 µM | – | – | – |
| CC[C@H](C)[C@@H]1NC(=O)[C@@H]2CSSC[C@@H]3NC(=O)[C@H](C(C)C)NC(=O)[C@H](CC(C)C)NC(=O)[C@H](CC(N)=O)NC(=O)[C@@H]4CCCN4C(=O)[C@H](CCCNC(=N)N)NC(=O)[C@H](CSSC[C@H](NC(=O)[C@@H](N)CC(=O)O)C(=O)N[C@@H](CC(C)C)C(=O)NCC(=O)N[C@@H](Cc4ccccc4)C(=O)N[C@@H](CCSC)C(=O)N[C@@H](CCCNC(=N)N)C(=O)N[C@@H](CCCCN)C(=O)N2)NC(=O)[C@H](CSSC[C@@H](C(=O)N[C@@H](CCCCN)C(=O)N[C@@H](Cc2ccc(O)cc2)C(=O)N[C@H](C(=O)N[C@@H](Cc2ccccc2)C(N)=O)C(C)C)NC(=O)[C@H](Cc2c[nH]c4ccccc24)NC(=O)[C@H](CCCCN)NC(=O)[C@H](Cc2cccc4ccccc24)NC(=O)[C@H]([C@@H](C)O)NC(=O)[C@H](CCCNC(=N)N)NC(=O)[C@H](CO)NC3=O)NC(=O)[C@H](CCCCN)NC(=O)[C@H](CC(=O)O)NC(=O)[C@H](CC(N)=O)NC(=O)[C@H](CC(=O)O)NC(=O)[C@@H]2CCCN2C1=O [compound 166] (H-DCLGFMRKCIPDNDKCCRPNLVCSRT[1Nal]KWCKYVF-NH2; disulfide 2-17, 9-23, 16-30) | – | – | – | – | 0.88 µM | 0.43 µM | 0.3 µM |
